Data published in US20230285389A1, “USE OF CSF-1R KINASE INHIBITOR” (Shanghai Runshi Medical Technology Co., Ltd, priority 2020, published 2023).

Tests used:
[1] = test system: CSF-1-induced human macrophages (PBMC-derived CD14+ monocytes); experiment: Survival of CSF-1-induced human macrophages from PBMC (CCK-8); assay type: cell-based; settings: 168 h; human-derived macrophages, 100 ng/mL CSF-1, 7 days; mean±SD; read-out: IC50 inhibition of cell survival, PBMC (CSF-1)
Procedure: Cryopreserved human-derived peripheral blood (peripheral blood from healthy donors) mononuclear cells (PBMCs) were taken out of liquid nitrogen for recovery. After recovery, the cells were re-suspended at 50 million/mL with the running buffer and DNAase I was added at a final concentration of 100 µg/mL and the plate was allowed for incubation for 15 min at room temperature. After centrifugation at 300 g for 5 min, the supernatant was discarded. The pellet was re-suspended at 50 million cells/mL with the running buffer, and the suspension was filtered through a 70 µM filter screen into a flow tube. The cells were sorted by using CD14+ monocyte negative selection beads sorting kit from […] company. According to the manufacture’s instructions, the specific experimental procedures were as follows.
After cells were re-suspended at 50 million cells/mL, 50 µL of the cocktail was added to each one mL of samples. The samples were incubated at room temperature for 5 min. The magnetic beads were vortexed for 30 sec, and added to the samples. The samples were incubated for further 5 min. The sample volumes were made up to 2.5 mL. The samples were placed on a magnetic frame ([…], #18000) for 2.5 min. […] The plate was placed in an incubator at 37° C. for 2-4 h, and then was read with an adjustable wavelength microplate reader setting at a wavelength of 450 nm.

[2] = cited from earlier work
[3] = test system: CSF-1-induced bone marrow-derived macrophages (BMDM); experiment: CSF-1-induced murine-derived macrophage (BMDM) survival (CCK-8); assay type: cell-based, BALB/c mice; settings: Mus musculus, 168 h, murine-derived macrophages, 100 ng/mL CSF-1, 7 days, mean±SD, read-out: IC50 inhibition of cell survival, BMDM (CSF-1)
Procedure: BALB/c mice (female, 6 weeks old, healthy) were sacrificed. Bone marrow cells were taken from their femurs and tibia, and seeded into a 96-well culture plate at appropriate densities (90 µL per well) after erythrobiasis treatment. 100 ng/mL of CSF-1 factor was added to each well to induce macrophages (Bone marrow-derived macrophages, BMDM), and compounds at various concentrations were added and the plate was allowed for incubation for 7 days. A solvent control group (negative control) was set. After 7 day-exposure of the cells to the compounds, 10 µL of CCK-8 reagent was added to each well. The culture plate was placed in an incubator at 37° C. for 2-4 h, and then was read with a full-wavelength microplate reader setting at the wavelength of 450 nm.

[4] = test system: M-NFS-60 cells; experiment: Proliferation of CSF-1R highly activated mouse myeloid leukemia cell M-NFS-60 (CCK-8); assay type: cell-based; settings: 72 h, read-out: IC50 inhibition of cell proliferation, M-NFS-60

## FC(F)(F)c1ccc(CNc2ccc(Cc3c[nH]c4ncc(Cl)cc34)cn2)cn1 [PLX3397, Pexidartinib, reference compound]
[1]
  IC50: 237 ± 14.7 nM
[2]; drug label
  black box warning on drug label: risk of severe and potentially fatal liver injury
[3]
  IC50: 48.9 ± 5.9 nM
[4]
  IC50: 62.6 ± 15.8 nM

## Bavencio: anti-PD-L1 antibody
[2]; some of the patients
  adverse response in treated patients: infusion-related response predominantly of grade 1-3 severity

## Yervoy: an anti-CTLA-4 antibody
[2]; treated patients
  patients experiencing immune-related adverse events: up to 60%
  share of immune-related adverse events that were severe (grade 3-4): 10-30%
